Reference: a melting point compilation (Tetko et al.; mined from patent text by program, amines drawn as free bases though some values may be those of a salt)

With `CN1CCC(c2nn(-c3ccc(N)cc3)c3ccccc23)CC1` the melting point was 116 to 118 °C.
In the case of `Fc1ccc(C2CC(n3cncn3)c3ccccc3N2)cc1` (configuration not stated), the melting point is reported as 184 to 186 °C.
Work on `O=C(Nc1cc(Cl)c(O)c(Cl)c1)c1ccc(F)cc1O` yielded a melting point of 223 to 224 °C.
With `COc1ccc(CN(C)CCCCc2ccc(NC(=O)c3cccc4c(=O)c5ccccc5sc34)cc2)cc1OC` the melting point was 156 °C.
For `C#CCOc1cc(-n2c(Cl)c(C#N)n(CCC)c2=O)c(F)cc1Cl`, the melting point was 122 °C.
With `O=C(OCc1ccccc1)c1ccc(OCc2ccc(COc3ccc(C(=O)OCc4ccccc4)cc3)cc2)cc1` the melting point was 154 to 157 °C.
`CCC(C)C[C@@H]1O[C@H](CC(=O)Nc2cccc(OC(F)(F)C(=O)O)c2)C(=O)N(CC(C)(C)CO)c2ccc(Cl)cc21` (some centres not stated) gave a melting point of 119 to 121 °C.
`CCC(CN1CCCC1)C(C#N)(c1ccccc1)c1ccccc1` (configuration not stated) showed a melting point of 90 °C.
Work on `c1ccc(Cn2nnc3ccc(Cn4ccnc4)cc32)cc1` yielded a melting point of 85.4 °C.
`COc1ccc(Cn2cnc3c(-c4ccco4)nc(I)nc32)cc1` gave a melting point of 145 to 148 °C.
For `O=C(N[C@H]1CC[C@H](CCN2CCN(c3nccc4c3OCC4)CC2)CC1)c1ccc(-c2cccnc2)cc1`, the melting point was 235 °C.
For `CCCN(CCC)c1ccc(CCC(=O)O)c2c1CCCN2C(=O)OC(C)(C)C`, the melting point was 84 to 86 °C.
`NC(=S)c1ncn2c1[C@@H]1CCCN1C(=O)c1c(Cl)cccc1-2` gave a melting point of 247 to 248 °C.
Work on `Cc1cc2c(cc1C)C(C)(C)N(Cc1ccccc1)C2(C)C` yielded a melting point of 98 to 100 °C.
For `CC(C)(C)OC(=O)CC[C@H](NC(=O)c1ccc(NCc2cnc(N)c(C#N)n2)cc1)C(=O)OC(C)(C)C`, the melting point was 71 to 78 °C.
With `COC=C(C(=O)OC)c1ccccc1CON=C(C)C(=NOC)c1ccc(CCc2ccc(Cl)cc2Cl)cc1` the melting point was 112 to 114 °C.
For `CC(C)(O)Cn1c(COc2ccccc2)nc2c(N)nc3ccccc3c21`, the melting point was 200 to 201 °C.
With `COc1ccc(-c2c(Cl)c(CN3C(=O)CCC3=O)nc3sc4c(c23)CCC(C(=O)O)C4)cc1` (configuration not stated) the melting point was 258 to 259 °C.
For `Cc1ccc2c(c1)C(c1ccncc1)CC2(O)c1ccc(F)cc1` (configuration not stated), the melting point was 187 to 192 °C.
With `CCCCn1c(=O)n(C)c(=O)c2nn(S(=O)(=O)CCCCl)cc21` the melting point was 105 to 106 °C.
`CCCOC(=O)Nc1cnc(OCCC)c(-c2nc3c(CCC)nn(C)c3c(=O)[nH]2)c1` showed a melting point of 210 to 211 °C.
Work on `CC(C)(C)c1cc(C(=O)NC2CCCCC2)cc(C(C)(C)C)c1O` yielded a melting point of 236 to 237 °C.
`CN(c1cccc2cc(-c3nccs3)[nH]c12)S(=O)(=O)c1ccsc1C(=O)N1CCOCC1` showed a melting point of 190 °C.
With `C=C(CCC(C)C1CCC2C3=C(C(=O)CC21C)C1(C)CCC(=O)C(C)C1CC3O)C(C)C(=O)OC` (configuration not stated) the melting point was 100 to 101 °C.
In the case of `CC12CC(=O)C3C(CCC4CC(O)CCC43C)C1CCC2C(=O)O` (configuration not stated), the melting point is reported as 265 to 270 °C.
With `CN(Cc1cnc(Cl)s1)C(=N)N[N+](=O)[O-]` the melting point was 116 to 117 °C.
In the case of `O=C(c1cnc(Cc2ccc(Cl)cc2)[nH]1)N1CCC(c2ccccc2)(c2ccccc2)CC1`, the melting point is reported as 105 to 106 °C.
For `O=C(c1ccc(C(F)(F)F)cc1)c1ccc(O)cn1`, the melting point was > 260 °C.
With `COc1ccc(C2COc3cc(O)c(O)cc3C2)cc1` (configuration not stated) the melting point was 160 °C.
In the case of `CC(=O)OC1CC2CCC3C(CCC4(C)C3CC(N3CCCCC3)C4OC(C)=O)C2(C)CC1N1CCOCC1` (configuration not stated), the melting point is reported as 119 to 128 °C.
In the case of `C=C1CCN(c2cn(-c3cccnc3)nc2Cl)C1=O`, the melting point is reported as 117 to 118 °C.
In the case of `CN1C(=O)[C@@H](NC(=O)OC(C)(C)C)COc2ccccc21`, the melting point is reported as 152 °C.
`O=Cc1c(Cl)cc(OCCO)cc1Cl` gave a melting point of 83 to 85 °C.
`COCCNC(=O)c1ccnc(-c2cccc3cc(Cc4cccc(C(F)(F)F)c4)sc23)c1F` showed a melting point of 94 to 95 °C.
For `Nc1c(Cl)ncnc1N[C@@H]1C=C[C@H](CO)C1`, the melting point was 144 to 146 °C.
With `COc1cccc(NC(=O)c2sccc2S(=O)(=O)Nc2onc(C)c2Br)c1` the melting point was 200 to 202 °C.
`COc1ccc(-n2nc(Sc3ccc(-c4ccccc4)cc3)c(C)c(C#N)c2=O)cc1` gave a melting point of 205 to 207 °C.
For `C=CCSc1nnc(Cl)c(C)c1C`, the melting point was 51 to 53 °C.
`Cc1c(O)c(C)c2c(C)cn(C(=O)C(C)(C)C)c2c1C` showed a melting point of 152 to 153 °C.
For `CN(C)c1cc(CC(C#N)=CNc2ccccc2)cc(N(C)C)c1N(C)C`, the melting point was 179 to 181 °C.
For `COc1c(C(=O)NCCN2CCN(c3cccc(Cl)c3Cl)CC2)cc(Br)c2ccccc12`, the melting point was 137 °C.
`CCNc1ccccc1S(=O)(=O)C[N+](=O)[O-]` gave a melting point of 82 °C.
`CCOC(=O)c1cnn2c(C(=O)N3CCN(C(=O)OC(C)(C)C)CC3)c(Cc3cccc(F)c3C)c(-c3ccccc3)c2c1Cl` showed a melting point of 88 to 90 °C.
`COc1cc(-c2ccccc2C(F)(F)F)c(Cl)cc1C(=O)N1Cc2cccn2Cc2ccccc21` showed a melting point of 208 to 210 °C.
With `N#Cc1ccc(N(Cc2ccc(OCc3ccccc3)cc2)n2cnnc2)cc1-c1cc2ccccc2o1` the melting point was 200 to 201 °C.
Work on `CCOC(=O)c1[nH]cc2c1NC1=C(C(=O)CCC1)C2c1ccc(Sc2nc3cc(OC)ccc3[nH]2)o1` (configuration not stated) yielded a melting point of 140 °C.
With `CC(=O)Oc1c(Cc2ccccc2)cc(C(C)=O)c2ccccc12` the melting point was 118 to 120 °C.
